In patent US5126258A (priority 1988, dated 1992):

Experiments:
Type in all cases: biochemical, mouse
P2 57G4 = assay: Catalytic hydrolysis by receptor P2 57G4
Protocol: (§1) Two further catalytic monoclonal receptors were similarly prepared by another fusion using Compound 2i linked to an antigenic carrier as immunogen. Those two catalytic receptor molecules and their hybridomas were designated "P2 50D8" and "P2 57G4".
(§2) In one study, twenty-eight monoclonal anti-hapten antibodies to phosphonate 2i from two separate fusion experiments were assayed. […] Antibodies to Compound 4i as hapten were assayed in the same manner. Twelve gamma-globulins were screened as described above. Compound 5 is homologous only in the acyl portion of this larger hapten; however, all but three of these cross-reacted with smaller phosphonate 2 in an ELISA assay as described herein. For two of these there was observed a fluorescence change, occurring in the first 5 minutes of incubation, which corresponds to about 50 percent of that for complete hydrolysis. The background rate of hydrolysis was reestablished after this initial reaction leveled off.

[1] = system: anti-Compound 4i antibodies; assay: Fluorescence esterolytic assay of twelve anti-Compound 4i gamma-globulins with Compound 5; conditions: two of twelve anti-Compound 4i antibodies, first 5 minutes of incubation
Protocol: A Perkin-Elmer LS-5 fluorescence spectrometer was operated at a fixed wavelength, using 355 nanometers (nm) for excitation and measuring the emission at 455 nm. A stock solution of the coumarin ester 5 was prepared in dioxane and was diluted to the desired concentrations in Tris-HCl (50 mM, pH 7) or sodium phosphate (50 mM, pH 4-9).
Reactions were run at 23 degrees C and were initiated by the addition of an aliquot of antibody solution (1 mg/ml) to substrate solutions to provide a final protein concentration of 100 nM. Final fluorescence values were determined by hydrolysis of the substrate with pig liver esterase. The observed reaction rate was corrected for spontaneous hydrolysis. Reaction kinetics were studied by measuring initial rates under pseudo-first order conditions. Active protein concentration was extrapolated from fluorescence values at the end of the reaction. The kinetic parameters were obtained by fitting the data to a hyperbolic curve and from double reciprocal plots. Inhibition constants were determined from the Lineweaver-Burk plot data with at least five inhibitor concentrations. […]
The fluorescence change upon hydrolysis of coumarin esters is easily detectable at nanomolar concentrations.
The practical range of pH for the assay is limited by the rapid spontaneous rate of hydrolysis of an ester Compound 5 above pH 8.0. […] Any change in fluorescence above background was noted. […]

P2 50D8 = assay: Catalytic hydrolysis by receptor P2 50D8
Protocol: as §1, §2

Monoclonal Receptor 37G2 = assay: Kinetics of hydrolysis by receptor 37G2
Source text: Reaction kinetics were studied using three reactant ligands as substrates for monoclonal receptors 37G2 and 22F5. Data from initial rates were consistent with Michaelis-Menten reaction mechanism for a usual enzyme-substrate system. Initial rates were followed using at 271 nm using a U.V.-visible spectorphotometer for Compound 17, and a fluorescence spectrometer for Compounds 5 and 20, using an excitation wavelength of 355 nm and an emission wavelength of 455 nm for both compounds.
Lineweaver-Burke plots for the catalyzed hydrolysis of Compounds 17, 5 and 20 obtained in the presence and absence of Compound 12i as inhibitor were prepared as discussed for FIG. 4. In particular, Compound 17 was present at concentrations of 1-16 uM with inhibitor concentrations of 100 and 300 nanomolar (nM). Compound 5 was present at concentrations of 1-10 uM with inhibitor concentrations of 100 and 200 nM. Compound 20 was present at concentrations of 2-20 uM with inhibitor concentrations of 25 and 100 nM. […]
50 mM phosphate buffer at a pH value of 8.0. The reactant ligand was
dissolved in dioxane and admixed in the amounts discussed above. Two
milliliters of reaction solution were utilized as was a dioxane
concentration of 2 percent by volume. Assays with Compound 17 as reac tan
ligand utilized 500 nanomolar receptor (based on a molecular weight of
150,000 daltons) in the above buffer, using the reactant ligand dissolved
in dioxane and a total dioxane concentration of 2 percent by volume.

For `O=C(Cc1ccc(NC(=O)C(F)(F)F)cc1)Oc1ccc2ccc(=O)oc2c1` [Compound 5], the “catalytic hydrolysis by P2 57G4” value (P2 57G4) was “capable of catalytically hydrolyzing”, the “fluorescence change as share of complete hydrolysis” value [1] was “about 50%” and the “catalytic hydrolysis by P2 50D8” value (P2 50D8) was “capable of catalytically hydrolyzing”.

`CC(=O)Nc1ccc(CC(=O)Oc2cccc3ccccc23)cc1` [Compound 17] showed a Km (Monoclonal Receptor 37G2; 50 mM phosphate pH 8.0, 500 nM receptor, 2% dioxane, figure = Km × 10^6) of 15 µM, a kcat (Monoclonal Receptor 37G2; pH 8.0) of 0.0016 s⁻¹ and a Vmax (Monoclonal Receptor 37G2; pH 8.0, 500 nM receptor, figure = Vmax × 10^9) of 0.042 µM/min.
